{"source": "patent EP0420232B1", "about": "“Water soluble derivatives of glycoside bioflavonoids, processes for their preparation and related pharmaceutical compositions” (EUROPEAN PHARMACY Srl, priority 1989, dated 1991)", "origin": "cited, not measured here", "key": {"[1]": {"conditions": "at room temperature; background statement"}, "[2]": {"conditions": "background statement"}}, "data": [{"smiles": "C[C@@H]1O[C@@H](OC[C@H]2O[C@@H](Oc3c(-c4ccc(O)c(O)c4)oc4cc(O)cc(O)c4c3=O)[C@H](O)[C@@H](O)[C@@H]2O)[C@H](O)[C@H](O)[C@H]1O", "note": "[rutin, 3-rutinoside of 3, 3', 4', 5,7-penthahydroxyflavone]", "values": [{"measurement": "solubility in water", "setting": "[1]", "result": "very poorly soluble"}, {"measurement": "toxicity", "setting": "[2]", "result": "devoid of toxicity"}]}, {"smiles": "COc1ccc(-c2cc(=O)c3c(O)cc(O[C@@H]4O[C@H](CO[C@@H]5O[C@@H](C)[C@H](O)[C@@H](O)[C@H]5O)[C@@H](O)[C@H](O)[C@H]4O)cc3o2)cc1O", "note": "[diosmin, 7-ramnoglycoside of 5,7,3'-trihydroxy-4'-methoxyflavone]", "values": [{"measurement": "toxicity", "setting": "[2]", "result": "devoid of toxicity"}]}]}
